Common to all, as to assay type: cell-based
One assay deals with Proteus vulgaris W091. Briefly: MIC, DST agar + 10% horse blood. The settings on record: Proteus vulgaris W091; DST agar + 10% horse blood; inoculum 0.001 ml of a 10^-2 dilution for G + ve bacteria or a 10^-4 dilution for G - ve organisms; read-out: MIC Agar. An excerpt: (§1) The ninimum inhibitory concentrations (MIC) cf this compound required to inhibit the growth of various bacteria are tabulated balow: […]

Another assay concerns Bacillus subtilis A. Briefly: MIC, DST agar + 10% horse blood. The following applies: Bacillus subtilis A; DST agar + 10% horse blood; inoculum 0.001 ml of a 10^-2 dilution for G + ve bacteria or a 10^-4 dilution for G - ve organisms; read-out: MIC Agar.
Text: as §1

A further assay concerns Proteus morganii I580. The experiment in a line: MIC, DST agar + 10% horse blood. The following applies: Morganella morganii; Proteus morganii I580; DST agar + 10% horse blood; inoculum 0.001 ml of a 10^-2 dilution for G + ve bacteria or a 10^-4 dilution for G - ve organisms; read-out: MIC Agar.
Text: as §1

In assay [1] the test system is Enterobacter cloacae N1. Briefly: MIC, DST agar + 10% horse blood. The settings on record: Enterobacter cloacae N1; DST agar + 10% horse blood; inoculum 0.001 ml of a 10^-2 dilution for G + ve bacteria or a 10^-4 dilution for G - ve organisms; read-out: MIC Agar.
Text: as §1

The next assay concerns Pseudomonas aeruginosa A. Briefly: MIC, DST agar + 10% horse blood. The settings on record: Pseudomonas aeruginosa A; DST agar + 10% horse blood; inoculum 0.001 ml of a 10^-2 dilution for G + ve bacteria or a 10^-4 dilution for G - ve organisms; read-out: MIC Agar.
Text: as §1

Assay [2] concerns Enterobacter cloacae N1. The experiment in a line: MIC, microtitre using Nutrient broth. The settings on record: Microtitre using nutrient broth, inoculum 0.001 ml of a 10^-2 dilution for G + ve bacteria or a 10^-4 dilution for G - ve organisms.
Text: as §1

For assay [3], the system named is Staphylococcus aureus 1517. The experiment in a line: MIC, microtitre using Nutrient broth. The settings on record: inoculum 0.001 ml of a 10^-2 dilution for G + ve bacteria or a 10^-4 dilution for G - ve organisms.
Text: as §1

Assay [4] has as its system Staphylococcus aureus Oxford. The experiment in a line: MIC, microtitre using Nutrient broth. The following applies: Staphylococcus aureus Oxford; Microtitre using nutrient broth; inoculum 0.001 ml of a 10^-2 dilution for G + ve bacteria or a 10^-4 dilution for G - ve organisms; read-out: MIC Broth.
Text: as §1

The results in this text go back to patent EP0013067A1, “Bicyclic beta-lactam antibacterial agents, their use in pharmaceutical compositions, processes for their preparation and intermediates for use in such processes” (BEECHAM GROUP PLC, priority 1978, dated 1980).

As to `CC(=O)OCC1=C(C(=O)O)N2C(=O)CC2S1` (stereo not shown) [compound 21, Sodium 2-Acetoxymethyl penem-3-carboxylate], the MIC (commonly the least concentration at which growth counts as inhibited) in the assay with Proteus vulgaris W091 is 50 µg/mL; with Bacillus subtilis A, 2.5 µg/mL; in the assay with Proteus morganii I580, 10 µg/mL; in the assay on Enterobacter cloacae N1 [1] it was 100 µg/mL; in the assay with Pseudomonas aeruginosa A it was more than 100 µg/mL; with Enterobacter cloacae N1 [2], 62 µg/mL. In assay [3], the MIC was 8 µg/mL.

Consider `O=C(O)C1=C(CO)SC2CC(=O)N12` (stereo not shown) [compound 19, Sodium 2-Hydroxymethyl penem-3-carboxylate], for which the minimal inhibitory concentration (MIC) in the assay with Proteus vulgaris W091 came to 50 µg/mL; in the assay with Bacillus subtilis A, 2.5 µg/mL; in the assay with Proteus morganii I580, 25 µg/mL; with Enterobacter cloacae N1 [1], 50 µg/mL; in the assay on Pseudomonas aeruginosa A, 50 µg/mL; in assay [4], 4 µg/mL.
